From patent US20060099170A1, “Compositions for inducing increased levels of beta-chemokines and methods of use therefor” (priority 2002, published 2006) come the findings set out here.

For test [1], the system named is activated PBMCs. Kind of test: β-chemokine levels (ELISA) in supernatants of activated PBMCs cultured with cell cycle arresting compounds. In kind it is cell-based, human. A general note: ELISA stands for enzyme-linked immunosorbent assay.
Test [2] has as its system HIV-1 ADA. Briefly: Antiviral activity of TAK-779 with or without RAPA in PBMCs (p24). It counts as cell-based. On the procedure: For infection of PBMCs, fresh donor PBMCs were cultured for 7 days in medium containing IL-2. On day 7, cells were exposed to the virus for 3 h. Nonadsorbed virus was removed by washing cells with PBS three times. Infected cells were cultured in IL-2 medium. Infection of MDMs was carried out as described before (Pemo, et al. 1993). Unless otherwise indicated, PBMCs were infected by using a moi of 0.001, and monocyte-derived macrophages (MDMs) were infected by using a moi of 0.002. Virus growth was monitored in culture supernatants by measuring p24 antigen levels by ELISA (NEN) or by measuring viral RT activity in an RT assay (Willey, et al., 1988).
To test this hypothesis, donor PBMCs were cultured in IL-2 medium in the absence or presence of RAPA (1, 10, and 100 nM). […] Infected cells were cultured in the presence of RAPA (same concentration as during pretreatment) plus 0.1 nM TAK-779. Virus production was determined 7 days after infection (FIG. 11).

Test [3] concerns CD8 lymphocytes. Kind of test: β-chemokine levels (ELISA) in cultures of purified activated CD8 lymphocytes. It counts as cell-based, human.
The subject of test [4] is CD8 lymphocytes. It counts as cell-based, human. The protocol:
(§1) Cell proliferation was measured by the trypan blue staining viability test, [^3H]thymidine incorporation in DNA, and the 3-(4,5-dimethylthiazol-2-yl)-2,5-diphenyl tetrazolium bromide (MTT) assay (Roche).
The impact of cell cycle arrest in β-chemokine levels was evaluated by measuring chemokine levels in supernatants of cell cultures containing compounds known to cause cell cycle arrest. Levels of the β-chemokines RANTES, MIP-1α, and MIP-1β were measured by using commercial ELISA kits (R &D Systems). Cell cycle arrest in G1 was induced by culturing of the cells in the presence of aphidicolin (APH), sodium butyrate (SB), hydroxyurea (HU), roscovitine (RC), or olomoucine (OL). Arrest in late S phase was induced by culture of cells in the presence of resveratrol. G2 cycle arrest was induced by the compounds nocodazole and Colcemid. All compounds were purchased from Sigma except RC and OL, which were from Calbiochem. Arrest of cell cycle progression in the presence of G1 cytostatic agents was measured by propidium iodide staining followed by fluorescence-activated cell sorter (FACS) analysis (Noguchi, et al., 1991). This method may be used to test any compound for ability to arrest the G1 phase in a cell cycle.
In the experiments described thus far, total PBMCs had been used. […] Negatively selected CD8^+ lymphocytes were activated by anti-CD3 plus IL-2 treatment for 3 days. Activated cells were cultured in the presence of IL-2 and HU (100 and 200 μM) for 24 or 48 h, time points at which cell proliferation and supernatant chemokine levels were assayed. Cell proliferation was determined by trypan blue staining, [^3H]thymidine incorporation in DNA, and percentage of cells in S phase as assessed by propidium iodide staining (FIG. 4). […] Similarly, the percentage of cells in S phase increased in the absence of HU, whereas it decreased in its presence. […]
To investigate whether increased levels of supernatant chemokines upon cell cycle arrest are cell cycle phase-specific, the effect of G2 arrest in chemokine production next was evaluated. […]

In test [5] the test system is CD4. Kind of test: Cyclic therapy trial with HU during off-ARV periods: absolute CD4 count. The settings on record: 7 days on ARV's alternated by 14 days off ARV's but on HU. It counts as in vivo, human. The source says:
(§2) The protocol used in the present invention expands on the NIH's concept of Cyclic Therapy. Cyclic therapy is a strategy in which patients can maintain viral suppression despite alternating between 7 days of taking ARV medications and 7 days of taking no medications. Compared to the NIH trail of short cycle of 7 days intermittently off therapy, in our trial, the G1 cycle agent HU is being used to maintain viral suppression during an extended off medication cycle of 14-28 days. The off period is followed by 7 days of combination antiretroviral therapy. This has allowed study participants to be on ⅔ fewer medications but still maintain viral control and immune reconstitution.
(§3) Four patients are enrolled in the trial. Patients in this study have benefited from decreased drug related toxicities, relief from difficult financial sacrifices to stay on ARV's, and improved adherence to medications.

The subject of test [6] is HIV-1 BaL. Kind of test: HIV-1-suppressive activity of supernatants from HU-treated PBMCs, infected PBMCs, p24. The settings on record: 100 μM HU in fresh medium, day 7 after infection. It counts as cell-based.
Description: The antiviral activity of the supernatants collected from cultures of PBMCs that had been exposed to 100 μM HU for 7 days [supernatants referred to as conditioned medium (CM)] was evaluated in PBMCs infected with HIV-1 BaL and HIV-1 IIIb. Briefly, PHA-activated PBMCs were infected with each virus at 100 tissue culture 50% infective dose units (TCID50)/10^6 PBMCs or 10 TCID50/10^6 PBMCs for 2 h at 37° C. Infected cells were cultured in IL-2 medium alone, IL-2 medium with 100 μM HU, IL-2 medium containing 50% supernatant from HU-treated PBMCs (CM/HU), or IL-2 medium containing 50% supernatant from control-treated PBMCs (CM/control). On day 3 after infection, culture medium was replaced with fresh medium of the same kind as on day 1. Viral growth (measured by p24 levels in the supernatant) and cell viability (assayed by MTT) were determined on day 7 after infection.
These culture supernatants were referred to as CM/HU. Culture supernatants from activated PBMCs cultured under the same conditions in the absence of HU (CM/control) also were harvested.
The antiviral activity of the CM was evaluated in the infection of PBMCs with HIV-1 BaL (a prototype R5-using virus) and HIV-1 IIIb (a prototype X4-using virus). […] Virus replication and cell viability were measured on day 7 after infection.
Test [7] deals with HIV. Kind of test: Cyclic therapy trial with HU during off-ARV periods: viral load. It counts as in vivo. As to conditions: for Viral load: 7 days on ARV's alternated by 14 days off ARV's but on HU.
Description: as §2, §3

Test [8] deals with activated PBMCs. Kind of test: Cell number / proliferation of activated PBMCs (trypan blue). It counts as cell-based, human. On the procedure: as §1
To this end, β-chemokine levels (production or availability) by activated PBMCs cultured in the presence of HU was investigated. HU is a G1 cytostatic drug that, by depleting intracellular nucleotide pools, arrests cell cycle progression in late G1 (Lori, et al., 1994). […] In the representative experiment depicted in FIG. 2, day 8 chemokine levels in cultures containing 100 μM HU were increased 3.4-fold for RANTES, 5.4-fold for MIP-1α, and 4-fold for MIP-1β compared with the untreated control. Because HU inhibits lymphocyte proliferation, chemokine values also were expressed as chemokine amount per viable cell. As expected, cell numbers were lower in the presence of the drug (FIG. 2C).
The agents evaluated were SB, APH, RC, and OL. SB and APH arrest the cell cycle in early and late G1, respectively (Korin, et al., 1998; Koostra, et al., 2000). RC and OL are purine-derivative drugs that arrest cell cycle progression in late G1 through inhibition of cyclin-dependent kinases (CDKs) (Gray, et al., 1999). […] The number of viable cells and chemokine levels are depicted. […]

Where [9] appears, read: at G1 cytostatic concentrations of the drug, PHA-activated PBMCs.
The mark [10] stands for this setting: 100 μM HU, day 8, levels as ng/ml.

Like-named read-outs stand apart in the source and are kept apart here.

In the case of `CC[C@H](CO)Nc1nc(NCc2ccccc2)c2ncn(C(C)C)c2n1` [RC, roscovitine], in test [1] (setting [9]), the chemokine levels entry was “increased chemokine levels”.
For `Cc1ccc(-c2ccc3c(c2)C=C(C(=O)Nc2ccc(C[N+](C)(C)C4CCOCC4)cc2)CCC3)cc1.[Cl-]` [TAK-779], the “inhibition of virus replication” value in test [2] (0.1 nM TAK-779, absence of RAPA, day 7) stood at 21%. The “virus inhibition due to TAK-779” value in test [2] (0.1 nM TAK-779 in presence of 1 nM RAPA) worked out at 74.5%; in test [2] (0.1 nM TAK-779 in presence of 10 nM RAPA), 89%; in test [2] (0.1 nM TAK-779 in presence of 100 nM RAPA) it was 96%.
Turning to `COC(=O)Nc1nc2ccc(C(=O)c3cccs3)cc2[nH]1` [nocodazole], in test [3] (0.01 μg/ml nocodazole, 48 h, G2 arrest), the chemokine content entry is on record as “lower than in the untreated controls”. Further, the cell cycle distribution result in test [4] (0.01 μg/ml nocodazole, 48 h) is on record as “accumulation of cells in G2”.
Turning to `CN[C@H]1CCc2cc(OC)c(OC)c(OC)c2-c2ccc(OC)c(=O)cc21` [Colcemid], in test [3] (same as nocodazole (lower than untreated), data not shown), the “chemokine content on G2 cycle arrest” value is on record as “same results”.
One may read the inhibition as the drop in the measured response relative to a control, in per cent. Take `NC(=O)NO` [HU, hydroxyurea]: the chemokine levels entry in test [1] is given as “increased chemokine levels”. The “MIP-1α level increase compared with untreated control” value in test [1] (setting [10]) is 5.4 fold. For the same compound, the “MIP-1β level increase compared with untreated control” value in test [1] (setting [10]) came to 4 fold. In addition, in test [1] (setting [10]), the “RANTES level increase compared with untreated control” value is 3.4 fold. Besides, in test [1] (100 μM HU, per viable cell), the “MIP-1α level increase, ng per 10^6 cells” value came out at 25.4 fold. The “MIP-1β level increase, ng per 10^6 cells” value in test [1] (100 μM HU, per viable cell) was found to be 18.4 fold. For the same compound, the “RANTES level increase, ng per 10^6 cells” value in test [1] (100 μM HU, per viable cell) is 16.2 fold. Besides, the “concentrations (ng/ml) of RANTES, MIP-1α, and MIP-1β in the culture supernatants” value in test [1] (PHA-activated PBMCs, HU for 14 days, dose-dependent) was “increased concentrations”. For the same compound, the “Absolute CD4 count” value in test [5] (Patient 1, 3 wks) stood at 377; in test [5] (Patient 1, column head 21 wks), 518; in test [5] (Patient 2, 3 wks), 1256; in test [5] (Patient 2, 18 wks) it was 973; in test [5] (Patient 3, 3 wks), 934; in test [5] (Patient 3, 12 wks), 995. For the same compound, in test [6], the “inhibition of HIV-1 BaL replication” value is reported as less than 10%. Further, the inhibition at 100 µM in test [6] (Human immunodeficiency virus 1, BAL, PBMC, 168 h, read-out: inhibition of HIV-1 BaL replication) is 8%. Also, the MIP-1α level increase in test [3] (100 μM HU, 48 h) came to 3.7 fold. This compound displayed an MIP-1β level increase in test [3] (100 μM HU, 48 h) of 4.7 fold. Also, in test [3] (100 μM HU, 48 h), the RANTES level increase worked out at 1.9 fold. For the same compound, the chemokine production levels result in test [3] (200 μM HU, 48 h, compared with 100 μM) was “Slightly lower increases”. Moreover, the Viral load was found to be 72 Copies/ml in test [7] (Patient 1, 6 wks); 158 Copies/ml in test [7] (Patient 1, 9 wks); 114 Copies/ml in test [7] (Patient 1, 12 wks); 973 Copies/ml in test [7] (Patient 1, 18 wks); 0 Copies/ml in test [7] (Patient 1, column head 3 wks off continuous therapy); 322 Copies/ml in test [7] (Patient 1, column head 15 wks). Besides, the Viral load in test [7] (Patient 1, column head 21 wks) came to 0 Copies/ml; in test [7] (Patient 2, 3 wks), 0 c/ml; in test [7] (Patient 2, 6 wks), 0 c/ml; in test [7] (Patient 2, 9 wks), 0 c/ml; in test [7] (Patient 2, 12 wks), 0 c/ml; in test [7] (Patient 2, 18 wks), 0 c/ml. Moreover, the Viral load in test [7] (Patient 2, column head 15 wks) turned out to be 0 c/ml; in test [7] (Patient 3, 3 wks), 0 c/ml; in test [7] (Patient 3, 6 wks) it was 0 c/ml; in test [7] (Patient 3, 9 wks), 0 c/ml; in test [7] (Patient 3, 12 wks), 0 c/ml. In addition, the “viral suppression despite discontinuation of primary anti-retroviral drugs” value in test [7] (all three patients, at least 3 cycles of treatment) is “persistent viral suppression”. For the same compound, in test [8] (PHA-activated PBMCs in presence of HU, trypan blue), the cell numbers result is on record as “lower”. Moreover, the “percentage of cells in S phase” value in test [4] (HU 100 and 200 μM, propidium iodide) is recorded as “decreased”. In addition, the “cell number and thymidine incorporation between 24 and 48 h” value in test [4] (HU 100 and 200 μM, doubled in absence of HU) was “remained constant or decreased”.
With `CCCC(=O)[O-].[Na+]` [SB, sodium butyrate], the chemokine levels result in test [1] (setting [9]) is reported as “increased chemokine levels”.
For the compound `C[C@@]1(CO)[C@H](O)CC[C@@]2(C)[C@H]1CC[C@H]1C[C@@H]3C[C@@]12CC[C@]3(O)CO` [APH, aphidicolin], the chemokine values result in test [1] (0.5 μM APH, PHA-activated PBMCs) is “Increased chemokine values”. The cell proliferation entry in test [8] (0.5 μM APH) is listed as “reduced cell proliferation”.
In the case of `Oc1ccc(C=Cc2cc(O)cc(O)c2)cc1` [resveratrol], the “chemokine levels on cell cycle arrest in late S” value in test [3] (10 μM resveratrol, data not shown) is listed as “lower than the untreated control”.
